In patent US11918582B2 (RAPT Therapeutics, Inc., priority 2021, dated 2024) one finds IC50 data, which are given here for 21 molecules.

This assay concerns the target T1, human HPK1 (MAP4K1) (Homo sapiens, UniProt Q92918).
T1 construct: Recombinant human HPK1 kinase domain was obtained from ThermoFisher (Cat. #PV6357) and SignalChem (Cat. #M23-11G); purchased ThermoFisher; SignalChem PV6357; M23-11G
T1 sequence (Q92918 17-274 limits assumed): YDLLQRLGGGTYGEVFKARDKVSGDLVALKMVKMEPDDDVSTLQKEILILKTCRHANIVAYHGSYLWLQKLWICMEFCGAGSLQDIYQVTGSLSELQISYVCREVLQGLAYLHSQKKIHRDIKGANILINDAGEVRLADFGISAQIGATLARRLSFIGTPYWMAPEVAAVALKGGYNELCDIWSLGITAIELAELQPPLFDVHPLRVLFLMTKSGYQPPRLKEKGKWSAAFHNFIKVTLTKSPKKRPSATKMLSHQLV
Kind of assay: Biochemical assay for activity against HPK1 (ADP-Glo, MBP substrate). The following applies: recombinant human HPK1 kinase domain, 1 nM enzyme, ADP-Glo luminescence. The text has this:
These compounds are made by the synthetic methods described earlier herein. Example 227 Biochemical Assay for Testing Compounds for Activity against HPK1
The enzymatic activity of human HPK1 (MAP4K1) was monitored in a biochemical assay in the presence or absence of compounds, using a peptide substrate (myelin basic protein, MBP), with an ADP-Glo assay kit (Promega, Cat. #V9103). An increase in phosphorylation of the peptide by HPK1 was indicative of its kinase activity.
Recombinant human HPK1 kinase domain was obtained from ThermoFisher (Cat. #PV6357) and SignalChem (Cat. #M23-11G). A 1 nM HPK1 kinase enzyme solution was prepared from the HPK1 stock received from the commercial supplier using an assay buffer containing 50 mM HEPES (4-(2-hydroxyethyl)-1-piperazineethanesulfonic acid) pH 7.5 (Fisher Scientific, Cat. #H1035), 150 mM NaCl (Fisher Scientific, Cat. #50843067), 3 mM TCEP-HCl (Tris(2-carboxyethyl)phosphine hydrochloride; Fisher Scientific, Cat. #PIPG82080), 10 mM MgCl2 (Fisher Scientific, Cat. #AM9530G), 0.005% Tween-20 (Fisher Scientific, Cat. #BP337500) and 0.01% BSA (bovine serum albumin; ThermoFisher, Cat. #15260037), in ultra-pure water. The final concentration of the assay buffer was 770 nM. A 5 mM stock solution of the peptide substrate was prepared using […] MBP (Myelin Basic Protein, Active Motif, Cat. #31314), 10 mM ATP (adenosine 5′-triphosphate; Sigma-Aldrich, Cat. #GE27-2056-01) and of assay buffer.
Test compounds were dissolved in DMSO (dimethyl sulfoxide) at 10 mM and then serial dilutions were prepared using a ViaFlow assist multichannel dispenser (Integra ViaFlo). 20 nL of test compounds at various concentrations were dispensed into a 1536-well assay plate (Corning Cat. #7247) using an Echo Nanoliter dispenser (Labcyte ECHO 550). […] of a 1 nM solution of HPK1 kinase enzyme diluted in assay buffer was added to the compound-containing plate using a Mantis Microliter dispenser (Formulatrix Mantis), covered with a lid, and incubated for 15 minutes at room temperature. 50 nL of a 5 mM stock solution of the peptide substrate (MBP) were added using the Echo Nanoliter dispenser. The plate was covered with a lid, centrifugated at 500 rpm for 1 minute and incubated for 2 hours at room temperature. […] of ADP-Glo reagent A was added using the Mantis Microliter dispenser, centrifugated at 500 rpm for 30 seconds and incubated for 40 minutes at room temperature. […] of ADP-Glo reagent B was added using the Mantis Microliter dispenser, centrifugated at 500 rpm for 30 seconds and incubated for 30 minutes at room temperature. Peptide phosphorylation was measured by luminescence on an Envision plate reader (PerkinElmer).
The HPK1 biochemical IC50 activity levels of the compounds of Examples 1-225 were tested using this assay and are shown in Table 2.
In general terms: ADP-Glo turns the ADP formed in a reaction into a luminescent signal.

Where a name gives a salt, the structure may show the parent alone. Bounds are passed on as bounds.

As a reminder, the IC50 is the point on the concentration scale where inhibition reaches its midpoint. Take `COc1cc2c(cc1Nc1ncc3c(C)nn([C@H]4CC[C@H](O)CC4)c3n1)CN(C)CC2` [Example 50, trans-4-(6-((6-methoxy-2-methyl-1,2,3,4-tetrahydroisoquinolin-7-yl)amino)-3-methyl-1H-pyrazolo[3,4-d]pyrimidin-1-yl)cyclohexan-1-ol]: the IC50 was less than 100 nM.
As for `COc1cc2c(cc1Nc1ncc3cnn(C[C@@H]4CCCN(S(C)(=O)=O)C4)c3n1)CN(C)CC2` [Example 141, 6-methoxy-2-methyl-N-[1-[[(3S)-1-methylsulfonyl-3-piperidyl]methyl]pyrazolo[3,4-d]pyrimidin-6-yl]-3,4-dihydro-1H-isoquinolin-7-amine], the IC50 was less than 100 nM.
Take `COc1cc2c(cc1Nc1ncc3cnn([C@H]4C[C@](C)(C(=O)O)C4)c3n1)CN(C)CC2` [Example 71, 3-[6-[(6-methoxy-2-methyl-3,4-dihydro-1H-isoquinolin-7-yl)amino]pyrazolo[3,4-d]pyrimidin-1-yl]-1-methyl-cyclobutanecarboxylic acid]: the IC50 was less than 100 nM.
The same measure for `COc1cc2c(cc1Nc1ncc3cnn([C@H]4C[C@@H](CNS(C)(=O)=O)C4)c3n1)CN(C)CC2` [Example 125, N-((cis-3-(6-((6-methoxy-2-methyl-1,2,3,4-tetrahydroisoquinolin-7-yl)amino)-1H-pyrazolo[3,4-d]pyrimidin-1-yl)cyclobutyl)methyl)methanesulfonamide]: 100 to 250 nM.
The figure for `COc1cc2c(cc1Nc1ncc3cnn(C[C@@H]4C[C@@H](C)CN4C(C)=O)c3n1)CN(C)CC2` [Example 138, 1-((2S,4R)-2-((6-((6-methoxy-2-methyl-1,2,3,4-tetrahydroisoquinolin-7-yl)amino)-1H-pyrazolo[3,4-d]pyrimidin-1-yl)methyl)-4-methylpyrrolidin-1-yl)ethan-1-one] is less than 100 nM; for `COc1cc2c(cc1Nc1ncc3cnn([C@@H]4CC[C@H](CO)C4)c3n1)CN(C)CC2` (relative stereo) [Example 24] it is less than 100 nM.
Take `CN1CCc2ccc(Nc3ncc4cnn(CCN5CCCS5(=O)=O)c4n3)cc2C1` [Example 4, N-[1-[2-(1,1-dioxo-1,2-thiazolidin-2-yl)ethyl]pyrazolo[3,4-d]pyrimidin-6-yl]-2-methyl-3,4-dihydro-1H-isoquinolin-7-amine trifluoroacetate]: the IC50 is less than 100 nM.
The same measure for `CN1CCc2c(cc(Nc3ncc4cnn([C@H]5CC[C@@H](O)CC5)c4n3)cc2C(F)(F)F)C1` [Example 179, (1s,4s)-4-(6-((2-methyl-5-(trifluoromethyl)-1,2,3,4-tetrahydroisoquinolin-7-yl)amino)-1H-pyrazolo[3,4-d]pyrimidin-1-yl)cyclohexan-1-ol]: less than 100 nM.
Take `COc1cc2c(cc1Nc1ncc3cnn(C[C@@H]4CCCC[C@@H]4CO)c3n1)CN(C)CC2` (racemic) [Example 166, [rac-cis-2-[[6-[(6-methoxy-2-methyl-3,4-dihydro-1H-isoquinolin-7-yl)amino]pyrazolo[3,4-d]pyrimidin-1-yl]methyl]cyclohexyl]methanol]: the IC50 is less than 100 nM.
`COc1cc2c(cc1Nc1ncc3cnn(CCNS(C)(=O)=O)c3n1)CN(C)CC2` [Example 88, N-[2-[6-[(6-methoxy-2-methyl-3,4-dihydro-1H-isoquinolin-7-yl)amino]pyrazolo[3,4-d]pyrimidin-1-yl]ethyl]methanesulfonamide]: the IC50 was less than 100 nM.
As for `COc1nc2c(cc1Nc1ncc3cnn([C@@H]4CCC[C@@H](C(N)=O)C4)c3n1)CN(C)CC2` [Example 181, (1R,3R)-3-(6-((2-methoxy-6-methyl-5,6,7,8-tetrahydro-1,6-naphthyridin-3-yl)amino)-1H-pyrazolo[3,4-d]pyrimidin-1-yl)cyclohexane-1-carboxamide Mesylate], the IC50 was less than 100 nM.
Regarding `COc1cc2c(cc1Nc1ncc3cnn(C[C@@H]4[C@H](C)CCN4C(C)=O)c3n1)CN(C)CC2` [Example 189, 1-((2S,3R)-2-((6-((6-methoxy-2-methyl-1,2,3,4-tetrahydroisoquinolin-7-yl)amino)-1H-pyrazolo[3,4-d]pyrimidin-1-yl)methyl)-3-methylpyrrolidin-1-yl)ethan-1-one], the IC50 is less than 100 nM.
In the case of `COc1cc2c(cc1Nc1ncc3cnn(CC4CC4(F)F)c3n1)CN(C)CC2` (stereo not drawn) [Example 206, N-(1-((2,2-difluorocyclopropyl)methyl)-1H-pyrazolo[3,4-d]pyrimidin-6-yl)-6-methoxy-2-methyl-1,2,3,4-tetrahydroisoquinolin-7-amine], the IC50 is less than 100 nM.
On to `COc1cc2c(cc1Nc1ncc3cnn(CC4CCCOC4)c3n1)CN(C)CC2` (racemic) [Example 200, (S)-6-methoxy-2-methyl-N-(1-((tetrahydro-2H-pyran-3-yl)methyl)-1H-pyrazolo[3,4-d]pyrimidin-6-yl)-1,2,3,4-tetrahydroisoquinolin-7-amine and (R)-6-methoxy-2-methyl-N-(1-((tetrahydro-2H-pyran-3-yl)methyl)-1H-pyrazolo[3,4-d]pyrimidin-6-yl)-1,2,3,4-tetrahydroisoquinolin-7-amine racemic mixture], for which the IC50 is less than 100 nM.
Take `COc1cc2c(cc1Nc1ncc3c(C(F)(F)F)nn(C(C)C)c3n1)CN(C)CC2` [Example 7, N-(1-isopropyl-3-(trifluoromethyl)-1H-pyrazolo[3,4-d]pyrimidin-6-yl)-6-methoxy-2-methyl-1,2,3,4-tetrahydroisoquinolin-7-amine]: the IC50 was less than 100 nM.
The figure for `COc1cc2c(cc1Nc1ncc3cnn(C[C@@H]4COCCN4C(C)=O)c3n1)CN(C)CC2` [Example 129, (R)-1-(3-((6-((6-methoxy-2-methyl-1,2,3,4-tetrahydroisoquinolin-7-yl)amino)-1H-pyrazolo[3,4-d]pyrimidin-1-yl)methyl)morpholino)ethan-1-one trifluoroacetate] is less than 100 nM; for `CC(C)n1ncc2cnc(Nc3ccc4c(c3)CN(C)CC4)nc21` [Example 101, N-(1-isopropyl-1H-pyrazolo[3,4-d]pyrimidin-6-yl)-2-methyl-1,2,3,4-tetrahydroisoquinolin-7-amine] it is less than 100 nM.
With `COc1cc2c(cc1Nc1ncc3cnn([C@H]4CC[C@@H](OC)CC4)c3n1)CN(C)CC2` [Example 46, 6-methoxy-N-(1-((1s,4s)-4-methoxycyclohexyl)-1H-pyrazolo[3,4-d]pyrimidin-6-yl)-2-methyl-1,2,3,4-tetrahydroisoquinolin-7-amine], the IC50 was less than 100 nM.
Regarding `CN1CCc2ccc(Nc3ncc4cnn(C5CCOCC5)c4n3)cc2C1` [Example 12, 2-methyl-N-(1-(tetrahydro-2H-pyran-4-yl)-1H-pyrazolo[3,4-d]pyrimidin-6-yl)-1,2,3,4-tetrahydroisoquinolin-7-amine], the IC50 was less than 100 nM.
The same measure for `COc1cc2c(cc1Nc1ncc3cnn([C@H]4CCC[C@H](O)C4)c3n1)CN(C)CC2` (racemic) [Example 44, rac-(trans)-3-(6-((6-methoxy-2-methyl-1,2,3,4-tetrahydroisoquinolin-7-yl)amino)-1H-pyrazolo[3,4-d]pyrimidin-1-yl)cyclohexan-1-ol]: less than 100 nM; for `COc1cc2c(cc1Nc1ncc3cnn(C[C@@H]4CCCN(C(C)=O)C4)c3n1)CN(C)CC2` [Example 140, 1-[(3R)-3-[[6-[(6-methoxy-2-methyl-3,4-dihydro-1H-isoquinolin-7-yl)amino]pyrazolo[3,4-d]pyrimidin-1-yl]methyl]-1-piperidyl]ethan-1-one]: less than 100 nM.
